Measured values published in US20250026721A1, “COMPOUNDS AND METHODS FOR MODULATING RAS-PI3K” (Vividion Therapeutics, Inc., priority 2023, published 2025).

Legend:
PIK3CA = target: T1, PIK3CA (Homo sapiens, UniProt P42336); experiment: In vitro ELISA target engagement assay for PIK3CA in Jurkat cellular lysate (competition with PIK3CA Biotin Probe); assay type: binding; conditions: 1 hour at rt, then 500 nM PIK3CA Biotin Probe, read-out: Elisa Target Engagement Assay (TE50)
T1 construct: endogenous in cells; host or cells: Jurkat cell lysate
T1 sequence (P42336 whole entry): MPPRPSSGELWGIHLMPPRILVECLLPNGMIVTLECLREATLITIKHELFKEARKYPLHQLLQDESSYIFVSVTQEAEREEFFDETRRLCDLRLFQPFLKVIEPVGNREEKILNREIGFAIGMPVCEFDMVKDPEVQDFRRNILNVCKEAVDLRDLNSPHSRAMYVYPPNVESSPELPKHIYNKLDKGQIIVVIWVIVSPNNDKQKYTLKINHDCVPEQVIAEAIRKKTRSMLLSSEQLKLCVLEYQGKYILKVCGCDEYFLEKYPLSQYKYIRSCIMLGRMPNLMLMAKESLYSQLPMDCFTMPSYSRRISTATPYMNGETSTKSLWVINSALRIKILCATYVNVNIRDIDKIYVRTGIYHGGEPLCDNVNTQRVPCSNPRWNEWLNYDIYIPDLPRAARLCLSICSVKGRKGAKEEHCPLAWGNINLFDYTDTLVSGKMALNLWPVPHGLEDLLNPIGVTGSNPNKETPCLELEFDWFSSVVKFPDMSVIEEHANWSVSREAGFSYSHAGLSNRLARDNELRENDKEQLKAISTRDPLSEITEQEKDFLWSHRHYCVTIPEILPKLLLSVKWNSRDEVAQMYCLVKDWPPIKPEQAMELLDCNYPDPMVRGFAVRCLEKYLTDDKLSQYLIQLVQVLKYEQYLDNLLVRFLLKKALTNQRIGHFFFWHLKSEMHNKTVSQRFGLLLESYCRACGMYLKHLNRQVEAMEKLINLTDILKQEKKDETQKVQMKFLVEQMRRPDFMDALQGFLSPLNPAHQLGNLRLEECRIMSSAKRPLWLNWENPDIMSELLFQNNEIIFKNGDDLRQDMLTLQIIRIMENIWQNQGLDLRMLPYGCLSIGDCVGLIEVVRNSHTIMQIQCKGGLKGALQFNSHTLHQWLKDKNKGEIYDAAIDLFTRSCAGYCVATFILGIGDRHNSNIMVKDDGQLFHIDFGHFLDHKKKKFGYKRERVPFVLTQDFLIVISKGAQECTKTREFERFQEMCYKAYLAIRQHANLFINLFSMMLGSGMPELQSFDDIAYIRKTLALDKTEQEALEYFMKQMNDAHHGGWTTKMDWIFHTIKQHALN
T1 sequence (P27986 whole entry partner): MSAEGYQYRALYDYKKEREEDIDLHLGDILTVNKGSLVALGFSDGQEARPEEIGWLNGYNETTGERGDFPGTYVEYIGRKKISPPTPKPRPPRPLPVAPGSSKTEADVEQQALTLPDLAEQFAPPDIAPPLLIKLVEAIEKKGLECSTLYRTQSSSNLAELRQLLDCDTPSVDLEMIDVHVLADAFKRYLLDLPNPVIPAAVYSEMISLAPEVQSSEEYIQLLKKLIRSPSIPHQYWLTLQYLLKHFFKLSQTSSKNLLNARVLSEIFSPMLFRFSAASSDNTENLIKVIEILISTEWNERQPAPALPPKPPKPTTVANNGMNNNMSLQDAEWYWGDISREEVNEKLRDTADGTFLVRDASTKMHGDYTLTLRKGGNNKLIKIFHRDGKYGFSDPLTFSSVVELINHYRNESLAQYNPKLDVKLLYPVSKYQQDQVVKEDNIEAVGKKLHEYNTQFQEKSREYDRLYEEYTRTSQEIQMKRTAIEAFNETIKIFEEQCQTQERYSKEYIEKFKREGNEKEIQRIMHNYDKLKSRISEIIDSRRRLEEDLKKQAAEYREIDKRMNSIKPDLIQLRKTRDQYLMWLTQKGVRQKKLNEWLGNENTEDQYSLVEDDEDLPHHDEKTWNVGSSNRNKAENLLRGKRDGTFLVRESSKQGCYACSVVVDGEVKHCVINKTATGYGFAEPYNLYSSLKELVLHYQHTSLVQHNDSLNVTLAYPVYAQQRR
Summary of the method: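 Jurkat lysate from sonicated frozen cells was preincubated 1 h at rt with serially diluted compound up to 200 μM, then labelled 1 h at rt with PIK3CA biotin probe at 500 nM final. Probe-bound PIK3CA was captured on antibody-coated plates and detected with Neutravidin-HRP luminescence; TE50 derived from the dose response.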

PIK3CA_C242 = target: T2, PIK3CA_C242 (Homo sapiens, UniProt P42336); experiment: Proteomic TE50 (IA-DTB / TMT mass spectrometry) in Jurkat cell lysate; assay type: binding; conditions: 1 hour at rt, 7-point dose response
T2 construct: endogenous in cells; host or cells: Jurkat cell lysate
T2 sequence (P42336 whole entry): as the sequence (P42336 whole entry) above
T2 sequence (P27986 whole entry partner): as the sequence (P27986 whole entry partner) above
Method: Example 4. Proteomic TE50 In vitro TE50 values for PIK3CA_C242 were obtained by treating 500 μg of cell lysate generated from Jurkat cells with DMSO or compound for 1 hour at rt followed by the addition of 200 μM desthiobiotin polyethyleneoxide iodoacetamide (IA-DTB) in DMSO for one hour at rt. Compounds were serially diluted 1:5 for a total of 7 points in order to generate dose response curves. Samples were then precipitated by the addition of 8× ice cold acetone and incubated at -80° C. for two hours. Protein was then pelleted by centrifugation (4,200 RPM, 45 min, 4° C.). The pelleted material was resuspended in 9M urea, 50 mM ammonium bicarbonate and proteins were reduced and alkylated by the addition of DTT and iodoacetamide (10 and 30 mM, respectively). Following reduction and alkylation, samples were exchanged into 2M urea (Zeba spin desalting plates, Thermo Fisher) and digested with Trypsin. IA-DTB labeled peptides were isolated with streptavidin agarose resin. Enriched peptides were eluted by the addition of 50% acetonitrile (ACN) 0.1% formic acid (FA) and dried in a SpeedVac vacuum concentrator. […] Reactions were quenched by the addition of 6.5 μL of 5% hydroxylamine. Samples were then combined and desalted on a Evolute express ABN plate (Biotage, 600-0010-PX01). Targeted TMT measurements were collected using an Orbitrap Lumos Tribrid Mass Spectrometer (Thermo Scientific) coupled to an UltiMate 3000 Series Rapid Separation LC system and autosampler (Thermo Scientific Dionex). Peptides were eluted onto a custom C18 capillary analytical column (75-μm inner diameter fused silica, packed with Acclaim PepMap C18 resin; Thermo Scientific) using an Acclaim PepMap 100 (Thermo 164535) loading column, and separated at a flow rate of […]. Data were acquired using a specific MS3-based TMT method targeting the peptide containing […], +2 charge state) where MS2 peptide fragmentation is triggered upon detection of the peptide precursor ion. Subsequent MS3 analysis was then performed using pre-selected peptide fragment ions that were isolated for fragmentation using synchronous precursor selection. RAW files were converted to MZXML format and searched with the SEQUEST algorithm using the […] software package. TMT quantitation was performed with a filter requiring at least ten summed signal-to-noise (S/N) for control channels. TE50 values were calculated from 7-point dose response curves created using the reporter ion S/N for each channel.

Compound | IC50 (PIK3CA) | IC50 (PIK3CA_C242)
C[C@H](/C=C\S(C)(=O)=O)NC(=O)C1(F)CCN(S(=O)(=O)c2ccc(Br)cc2-c2ncccc2Cl)CC1 [Compound 204, (R,Z)-1-((4-bromo-2-(3-chloropyridin-2-yl)phenyl)sulfonyl)-4-fluoro-N-(4-(methylsulfonyl)but-3-en-2-yl)piperidine-4-carboxamide] | 340 nM | 730 nM
C[C@@H](/C=C\S(C)(=O)=O)NC(=O)C1(F)CCN(S(=O)(=O)c2ccc(Cl)cc2-c2cccc(OC3CCC3)c2)CC1 [Compound 263, (S,Z)-1-((5-chloro-3′-cyclobutoxy-[1,1′-biphenyl]-2-yl)sulfonyl)-4-fluoro-N-(4-(methylsulfonyl)but-3-en-2-yl)piperidine-4-carboxamide] | 1000 nM | 930 nM
C[C@H](/C=C\S(C)(=O)=O)NC(=O)C1(F)CCN(S(=O)(=O)c2ccc(N3CCOCC3)cc2-c2ccccc2Cl)CC1 [Compound 121, (R,Z)-1-((2′-chloro-5-morpholino-[1,1′-biphenyl]-2-yl)sulfonyl)-4-fluoro-N-(4-(methylsulfonyl)but-3-en-2-yl)piperidine-4-carboxamide] | 1000 nM | 880 nM
COCc1cccc(-c2cc(Cl)ccc2S(=O)(=O)N2CCC(F)(C(=O)N[C@@H](C)/C=C\S(C)(=O)=O)CC2)c1 [Compound 126, (S,Z)-1-((5-chloro-3′-(methoxymethyl)-[1,1′-biphenyl]-2-yl)sulfonyl)-4-fluoro-N-(4-(methylsulfonyl)but-3-en-2-yl)piperidine-4-carboxamide] | 430 nM | 816 nM
COc1cccc(-c2cc(F)ccc2S(=O)(=O)N2CCC(F)(C(=O)N[C@@H](C)/C=C\S(C)(=O)=O)CC2)c1 [Compound 9, (S,Z)-4-fluoro-1-((5-fluoro-3′-methoxy-[1,1′-biphenyl]-2-yl)sulfonyl)-N-(4-(methylsulfonyl)but-3-en-2-yl)piperidine-4-carboxamide] | 570 nM | 507 nM
CCCNC(=O)c1cccc(-c2cc(Cl)ccc2S(=O)(=O)N2CCC(F)(C(=O)N[C@@H](C)/C=C\S(C)(=O)=O)CC2)c1 [Compound 279, (S,Z)-1-((5-chloro-3′-(propylcarbamoyl)-[1,1′-biphenyl]-2-yl)sulfonyl)-4-fluoro-N-(4-(methylsulfonyl)but-3-en-2-yl)piperidine-4-carboxamide] | 1000 nM | 1530 nM
CO/N=C/c1cccc(-c2cc(Cl)ccc2S(=O)(=O)N2CCC(F)(C(=O)N[C@@H](C)/C=C\S(C)(=O)=O)CC2)c1 [Compound 127, 1-((5-chloro-3′-((E)-(methoxyimino)methyl)-[1,1′-biphenyl]-2-yl)sulfonyl)-4-fluoro-N-((S,Z)-4-(methylsulfonyl)but-3-en-2-yl) piperidine-4-carboxamide] | 1100 nM | 960 nM
COc1ccc(S(=O)(=O)N2CCC(F)(C(=O)N[C@H](C)/C=C\S(C)(=O)=O)CC2)c(-c2ccccc2C)c1 [Compound 24, (R,Z)-4-fluoro-1-((5-methoxy-2′-methyl-[1,1′-biphenyl]-2-yl)sulfonyl)-N-(4-(methylsulfonyl)but-3-en-2-yl)piperidine-4-carboxamide] | 170 nM | 232 nM
COc1ccc(S(=O)(=O)N2CCC(F)(C(=O)N[C@H](C)/C=C\S(C)(=O)=O)CC2)c(-c2cccc(Cl)c2)c1 [Compound 22, (R,Z)-1-((3′-chloro-5-methoxy-[1,1′-biphenyl]-2-yl)sulfonyl)-4-fluoro-N-(4-(methylsulfonyl)but-3-en-2-yl)piperidine-4-carboxamide] | 770 nM | 785 nM
COc1cc(-c2ccccc2C)c(S(=O)(=O)N2CCC(F)(C(=O)NC/C=C/S(C)(=O)=O)CC2)cn1 [Compound 189, (E)-4-fluoro-1-((6-methoxy-4-(o-tolyl)pyridin-3-yl)sulfonyl)-N-(3-(methylsulfonyl)allyl)piperidine-4-carboxamide] |  | 263 nM
CC[C@H](/C=C\S(C)(=O)=O)NC(=O)C1(F)CCN(S(=O)(=O)c2ccc(N(C)C)cc2-c2ccccc2Cl)CC1 [Compound 85, (R,Z)-1-((2′-chloro-5-(dimethylamino)-[1,1′-biphenyl]-2-yl)sulfonyl)-4-fluoro-N-(1-(methylsulfonyl)pent-1-en-3-yl)piperidine-4-carboxamide] |  | 930 nM
COc1ccc(S(=O)(=O)N2CCC(F)(C(=O)NC/C=C/S(C)(=O)=O)CC2)c(-c2ccccc2C)c1 [Compound 44, (E)-4-fluoro-1-((5-methoxy-2′-methyl-[1,1′-biphenyl]-2-yl)sulfonyl)-N-(3-(methylsulfonyl)allyl)piperidine-4-carboxamide] |  | 313 nM
COc1cccc(-c2cc(Cl)ncc2S(=O)(=O)N2CCC(F)(C(=O)N[C@@H](C)/C=C\S(C)(=O)=O)CC2)c1 [Compound 270, (S,Z)-1-((6-chloro-4-(3-methoxyphenyl)pyridin-3-yl)sulfonyl)-4-fluoro-N-(4-(methylsulfonyl)but-3-en-2-yl)piperidine-4-carboxamide] |  | 550 nM

Compounds with a lower IC50 (PIK3CA_C242), results first:

IC50 (PIK3CA) | IC50 (PIK3CA_C242) | Compound
170 nM | 209 nM | COc1ccc(Cl)c(-c2cc(Cl)ncc2S(=O)(=O)N2CCC(F)(C(=O)N[C@@H](C)/C=C\S(C)(=O)=O)CC2)c1 [Compound 271, (S,Z)-1-((6-chloro-4-(2-chloro-5-methoxyphenyl)pyridin-3-yl)sulfonyl)-4-fluoro-N-(4-(methylsulfonyl)but-3-en-2-yl)piperidine-4-carboxamide]
97 nM | 82 nM | C[C@H](/C=C\S(C)(=O)=O)NC(=O)C1(F)CCN(S(=O)(=O)c2cnc(Br)cc2-c2ccccc2Cl)CC1 [Compound 277, (R,Z)-1-((6-bromo-4-(2-chlorophenyl)pyridin-3-yl)sulfonyl)-4-fluoro-N-(4-(methylsulfonyl)but-3-en-2yl)piperidine-4-carboxamide]
150 nM | 210 nM | C[C@@H](/C=C\S(C)(=O)=O)NC(=O)C1(F)CCN(S(=O)(=O)c2ccc(Cl)cc2-c2cccc(OCc3cccnc3)c2)CC1 [Compound 260, (S,Z)-1-((5-chloro-3′-(pyridin-3-ylmethoxy)-[1,1′-biphenyl]-2-yl)sulfonyl)-4-fluoro-N-(4-(methylsulfonyl)but-3-en-2-yl)piperidine-4-carboxamide]
 | 120 nM | C=Cc1ccc(S(=O)(=O)N2CCC(F)(C(=O)N[C@H](C)/C=C\S(C)(=O)=O)CC2)c(-c2ccccc2C)c1 [Compound 108, (R,Z)-4-fluoro-1-((2′-methyl-5-vinyl-[1,1′-biphenyl]-2-yl)sulfonyl)-N-(4-(methylsulfonyl)but-3-en-2-yl)piperidine-4-carboxamide]
 | 47 nM | C[C@@H](/C=C\S(C)(=O)=O)NC(=O)C1(F)CCN(S(=O)(=O)c2ccc(N(C)C)cc2-c2ccccc2Cl)CC1 [Compound 89, (S,Z)-1-((2′-chloro-5-(dimethylamino)-[1,1′-biphenyl]-2-yl)sulfonyl)-4-fluoro-N-(4-(methylsulfonyl)but-3-en-2-yl)piperidine-4-carboxamide]
 | 66 nM | COc1ccc(S(=O)(=O)N2CCC(F)(C(=O)N[C@@H](C)/C=C\S(C)(=O)=O)CC2)c(-c2ccccc2C)c1 [Compound 12, (S,Z)-4-fluoro-1-((5-methoxy-2′-methyl-[1,1′-biphenyl]-2-yl)sulfonyl)-N-(4-(methylsulfonyl)but-3-en-2-yl)piperidine-4-carboxamide]
